# Laboratory results published in BigSolDB 2.1.
structure (smiles),measurement,setting,value
C=C1C[C@]23C[C@@]1(O)CC[C@H]2[C@@]12C=C[C@H](O)[C@@](C)(C(=O)O1)[C@H]2[C@@H]3C(=O)O,solubility (mole fraction),"in DMSO, 278.15 K",0.121
same,solubility (mole fraction),"in DMSO, 283.15 K",0.138
same,solubility (mole fraction),"in DMSO, 288.15 K",0.159
same,solubility (mole fraction),"in DMSO, 293.15 K",0.184
same,solubility (mole fraction),"in DMSO, 298.15 K",0.207
same,solubility (mole fraction),"in DMSO, 303.15 K",0.233
same,solubility (mole fraction),"in DMSO, 308.15 K",0.263
same,solubility (mole fraction),"in DMSO, 313.15 K",0.291
same,solubility (mole fraction),"in DMSO, 318.15 K",0.323
same,solubility (mole fraction),"in DMSO, 323.15 K",0.362
same,solubility (mole fraction),"in THF, 278.15 K",0.149
same,solubility (mole fraction),"in THF, 283.15 K",0.173
same,solubility (mole fraction),"in THF, 288.15 K",0.199
same,solubility (mole fraction),"in THF, 293.15 K",0.227
same,solubility (mole fraction),"in THF, 298.15 K",0.252
same,solubility (mole fraction),"in THF, 303.15 K",0.279
same,solubility (mole fraction),"in THF, 308.15 K",0.31
same,solubility (mole fraction),"in THF, 313.15 K",0.341
same,solubility (mole fraction),"in THF, 318.15 K",0.371
same,solubility (mole fraction),"in THF, 323.15 K",0.401
same,solubility (mole fraction),"in acetone, 278.15 K",0.103
same,solubility (mole fraction),"in acetone, 283.15 K",0.12
same,solubility (mole fraction),"in acetone, 288.15 K",0.137
same,solubility (mole fraction),"in acetone, 293.15 K",0.158
same,solubility (mole fraction),"in acetone, 298.15 K",0.181
same,solubility (mole fraction),"in acetone, 303.15 K",0.205
same,solubility (mole fraction),"in acetone, 308.15 K",0.23
same,solubility (mole fraction),"in acetone, 313.15 K",0.258
same,solubility (mole fraction),"in acetone, 318.15 K",0.289
same,solubility (mole fraction),"in acetone, 323.15 K",0.32
same,solubility (mole fraction),"in acetonitrile, 278.15 K",0.00864
same,solubility (mole fraction),"in acetonitrile, 283.15 K",0.0119
same,solubility (mole fraction),"in acetonitrile, 288.15 K",0.0155
same,solubility (mole fraction),"in acetonitrile, 293.15 K",0.0197
same,solubility (mole fraction),"in acetonitrile, 298.15 K",0.0243
same,solubility (mole fraction),"in acetonitrile, 303.15 K",0.0294
same,solubility (mole fraction),"in acetonitrile, 308.15 K",0.0352
same,solubility (mole fraction),"in acetonitrile, 313.15 K",0.0413
same,solubility (mole fraction),"in acetonitrile, 318.15 K",0.0481
same,solubility (mole fraction),"in acetonitrile, 323.15 K",0.0565
same,solubility (mole fraction),"in chloroform, 278.15 K",0.0222
same,solubility (mole fraction),"in chloroform, 283.15 K",0.0302
same,solubility (mole fraction),"in chloroform, 288.15 K",0.0386
same,solubility (mole fraction),"in chloroform, 293.15 K",0.0479
same,solubility (mole fraction),"in chloroform, 298.15 K",0.0591
same,solubility (mole fraction),"in chloroform, 303.15 K",0.0715
same,solubility (mole fraction),"in chloroform, 308.15 K",0.085
same,solubility (mole fraction),"in chloroform, 313.15 K",0.0994
same,solubility (mole fraction),"in chloroform, 318.15 K",0.114
same,solubility (mole fraction),"in chloroform, 323.15 K",0.13
same,solubility (mole fraction),"in ethanol, 278.15 K",0.181
same,solubility (mole fraction),"in ethanol, 283.15 K",0.205
same,solubility (mole fraction),"in ethanol, 288.15 K",0.231
same,solubility (mole fraction),"in ethanol, 293.15 K",0.257
same,solubility (mole fraction),"in ethanol, 298.15 K",0.284
same,solubility (mole fraction),"in ethanol, 303.15 K",0.312
same,solubility (mole fraction),"in ethanol, 308.15 K",0.344
same,solubility (mole fraction),"in ethanol, 313.15 K",0.374
same,solubility (mole fraction),"in ethanol, 318.15 K",0.404
same,solubility (mole fraction),"in ethanol, 323.15 K",0.438
same,solubility (mole fraction),"in ethyl acetate, 278.15 K",0.0679
same,solubility (mole fraction),"in ethyl acetate, 283.15 K",0.0807
same,solubility (mole fraction),"in ethyl acetate, 288.15 K",0.0956
same,solubility (mole fraction),"in ethyl acetate, 293.15 K",0.112
same,solubility (mole fraction),"in ethyl acetate, 298.15 K",0.132
same,solubility (mole fraction),"in ethyl acetate, 303.15 K",0.152
same,solubility (mole fraction),"in ethyl acetate, 308.15 K",0.175
same,solubility (mole fraction),"in ethyl acetate, 313.15 K",0.203
same,solubility (mole fraction),"in ethyl acetate, 318.15 K",0.235
same,solubility (mole fraction),"in ethyl acetate, 323.15 K",0.271
same,solubility (mole fraction),"in isopropanol, 278.15 K",0.000502
same,solubility (mole fraction),"in isopropanol, 283.15 K",0.000563
same,solubility (mole fraction),"in isopropanol, 288.15 K",0.000625
same,solubility (mole fraction),"in isopropanol, 293.15 K",0.000688
same,solubility (mole fraction),"in isopropanol, 298.15 K",0.000752
same,solubility (mole fraction),"in isopropanol, 303.15 K",0.000821
same,solubility (mole fraction),"in isopropanol, 308.15 K",0.000888
same,solubility (mole fraction),"in isopropanol, 313.15 K",0.00096
same,solubility (mole fraction),"in isopropanol, 318.15 K",0.00103
same,solubility (mole fraction),"in isopropanol, 323.15 K",0.00111
same,solubility (mole fraction),"in n-butanol, 278.15 K",0.0021
same,solubility (mole fraction),"in n-butanol, 283.15 K",0.00318
same,solubility (mole fraction),"in n-butanol, 288.15 K",0.00427
same,solubility (mole fraction),"in n-butanol, 293.15 K",0.00554
same,solubility (mole fraction),"in n-butanol, 298.15 K",0.00704
same,solubility (mole fraction),"in n-butanol, 303.15 K",0.00876
same,solubility (mole fraction),"in n-butanol, 308.15 K",0.0107
same,solubility (mole fraction),"in n-butanol, 313.15 K",0.0129
same,solubility (mole fraction),"in n-butanol, 318.15 K",0.0151
same,solubility (mole fraction),"in n-butanol, 323.15 K",0.0173
same,solubility (mole fraction),"in n-heptane, 278.15 K",8.4e-05
same,solubility (mole fraction),"in n-heptane, 283.15 K",0.000116
same,solubility (mole fraction),"in n-heptane, 288.15 K",0.000152
same,solubility (mole fraction),"in n-heptane, 293.15 K",0.000192
same,solubility (mole fraction),"in n-heptane, 298.15 K",0.000236
same,solubility (mole fraction),"in n-heptane, 303.15 K",0.000289
same,solubility (mole fraction),"in n-heptane, 308.15 K",0.000349
same,solubility (mole fraction),"in n-heptane, 313.15 K",0.000407
same,solubility (mole fraction),"in n-heptane, 318.15 K",0.000471
same,solubility (mole fraction),"in n-heptane, 323.15 K",0.000537
same,solubility (mole fraction),"in n-hexane, 278.15 K",0.00017
same,solubility (mole fraction),"in n-hexane, 283.15 K",0.000202
same,solubility (mole fraction),"in n-hexane, 288.15 K",0.000239
same,solubility (mole fraction),"in n-hexane, 293.15 K",0.000282
same,solubility (mole fraction),"in n-hexane, 298.15 K",0.00033
same,solubility (mole fraction),"in n-hexane, 303.15 K",0.000386
same,solubility (mole fraction),"in n-hexane, 308.15 K",0.000444
same,solubility (mole fraction),"in n-hexane, 313.15 K",0.000511
same,solubility (mole fraction),"in n-hexane, 318.15 K",0.000583
same,solubility (mole fraction),"in n-hexane, 323.15 K",0.000666
